Laboratory results published in patent US20230181578A1, “MODULATION OF MIXED LINEAGE KINASE DOMAIN-LIKE PROTEIN SIGNALING” (EBERHARD KARLS UNIVERSITÄT TÜBINGEN, priority 2020, published 2023).
Positions count from the first letter of the chain named.

How the values were obtained:
phosphorylated MLKL [1] = assay: MLKL phosphorylation, Western-blot, TSZ-treated HT-29 wt cells; type: cell-based, human; settings: FIG. 6C
Excerpt: (§1) A-B) Dose-dependence of the inhibitory effect of MBA-h1 (A) or MBA-m1M (B) on necroptotic cell death in human (HT-29) and mouse (NIH-3T3) cells. C-D) Effect of MBA-h1 (C) or MBA-m1 (D) on MLKL phosphorylation. E-F) Effect of MBA-h1 (E) or MBA-m1 (F) on MLKL translocation to the plasma membrane. HT-29 (C and E) or NIH-3T3 (D and F) wt cells were TSZ-treated in the presence or not of the inhibitors. NSA was used as a control in C and E. G) Inhibitory effect of MBA-m1 in MLKL ko cells transfected with mMLKL2 or the mutant mMLKL2_I84A_F87A. Cells were transfected with the different variants of MLKL-GFP. The dead cell population was calculated from transfected cells. Individual values from at least three independent experiments are shown. H-I) MBA-m1 ameliorates dermatitis in Tnfr1-KO HoipE-KO mice. H) Representative images of mice before and after 2 weeks' treatment with MBA-m1. I) Severity score of dermatitis assessed after and before treatment with the inhibitor. […] To quantify the sore of region affected, 0 values were assigned to no lesion, and 1 values were assigned when lesions were found in either neck, back, flank or head, being the sum of these elements taken as the final score. To quantify the character of lesions, 0 values were assigned to no lesions, 1 to excoriations one or small punctuate crust, 2 to multiple punctuate crust or coalescing crust, 3 to erosion, ulceration or bleeding. […]

MLKL [2] = assay: MLKL translocation to the plasma membrane, TSZ-treated HT-29 wt cells; type: cell-based, human; settings: FIG. 6E
Excerpt: as §1

HT-29 = assay: Necroptosis inhibition assay, TSZ-treated human HT-29 cells; type: cell-based
Excerpt: (§2) A-B) Dose-dependence of the inhibitory effect of MBA-h1 (A) or MBA-m1M (B) on necroptotic cell death in human (HT-29) and mouse (NIH-3T3) cells. C-D) Effect of MBA-h1 (C) or MBA-m1 (D) on MLKL phosphorylation. E-F) Effect of MBA-h1 (E) or MBA-m1 (F) on MLKL translocation to the plasma membrane. HT-29 (C and E) or NIH-3T3 (D and F) wt cells were TSZ-treated in the presence or not of the inhibitors. NSA was used as a control in C and E. G) Inhibitory effect of MBA-m1 in MLKL ko cells transfected with mMLKL2 or the mutant mMLKL2_I84A_F87A. Cells were transfected with the different variants of MLKL-GFP. The dead cell population was calculated from transfected cells. Individual values from at least three independent experiments are shown. H-I) MBA-m1 ameliorates dermatitis in Tnfr1-KO HoipE-KO mice. H) Representative images of mice before and after 2 weeks' treatment with MBA-m1. I) Severity score of dermatitis assessed after and before treatment with the inhibitor. Tnfr1-KO HoipE-KO (n=3). To quantify the sore of region affected, 0 values were assigned to no lesion, and 1 values were assigned when lesions were found in either neck, back, flank or head, being the sum of these elements taken as the final score. To quantify the character of lesions, 0 values were assigned to no lesions, 1 to excoriations one or small punctuate crust, 2 to multiple punctuate crust or coalescing crust, 3 to erosion, ulceration or bleeding. Data are presented as mean values±s.e.m.
(§3) To evaluate the necroptotic potential of the different mMLKL isoforms, each of the three isoforms were re-expressed in NIH-3T3 MLKL knock out (ko) cells following induction of necroptosis with a mixture of TNF, a Smac mimetic compound (LCL-161) and the pan-caspase inhibitor zVAD (TSZ), which is the most commonly used necroptosis-inducing cocktail. The inventors quantified cell death by flow cytometry (FIG. 1B) and confocal microscopy (FIG. 1C) using propidium iodide (PI) as a marker of irreversible plasma membrane disruption. As expected, mMLKL3 was intrinsically active, on account of its lack of the psK domain. […]

hMLKL1 = target: T1, hMLKL1 (Homo sapiens, UniProt Q8NB16); assay: Necroptosis inhibition in HT-29 MLKL ko cells re-expressing hMLKL1; type: cell-based; settings: HT-29 MLKL ko re-expressing hMLKL1
T1 construct: GFP; expressed in transfected cells; host or cells: HT-29 MLKL ko cells
T1 sequence (Q8NB16 1-471): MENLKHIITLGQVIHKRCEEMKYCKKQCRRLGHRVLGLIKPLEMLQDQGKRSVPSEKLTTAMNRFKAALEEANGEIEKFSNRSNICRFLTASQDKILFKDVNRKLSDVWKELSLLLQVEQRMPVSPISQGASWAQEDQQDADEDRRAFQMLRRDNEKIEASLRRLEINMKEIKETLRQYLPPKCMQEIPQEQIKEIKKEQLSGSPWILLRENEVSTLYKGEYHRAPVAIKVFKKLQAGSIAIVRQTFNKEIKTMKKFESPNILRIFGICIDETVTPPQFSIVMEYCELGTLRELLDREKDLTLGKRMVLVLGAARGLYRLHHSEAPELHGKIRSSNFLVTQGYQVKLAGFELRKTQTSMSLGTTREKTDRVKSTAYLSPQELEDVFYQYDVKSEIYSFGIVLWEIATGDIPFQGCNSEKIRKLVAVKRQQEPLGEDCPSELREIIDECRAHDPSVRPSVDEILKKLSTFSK
Excerpt: The species-specificity was expected considering the large difference in the He/groove interactions between mouse and human MLKL (FIGS. 3 and 4).

phosphorylated MLKL [3] = assay: MLKL phosphorylation, Western-blot, TSZ-treated NIH-3T3 wt cells; type: cell-based, mouse; settings: FIG. 6D
Excerpt: as §1

Tnfr1KO;HoipEKO mice = assay: Necroptosis-driven dermatitis in Tnfr1KO;HoipEKO mice; type: in vivo, mouse; settings: treated daily for three weeks from 30 to 40 days of age, end of treatment
Excerpt: as §2, with “H) Representative images of mice before and after 2 weeks' treatment with MBA-m1.” left out, “values±s.e.m. […]” for “values±s.e.m.”

MLKL [4] = assay: MLKL translocation to the plasma membrane, TSZ-treated NIH-3T3 wt cells; type: cell-based, mouse; settings: FIG. 6F
Excerpt: as §1

NIH-3T3 WT cells = assay: Necroptosis inhibition assay, TSZ-treated mouse NIH-3T3 WT cells; type: cell-based
Excerpt: as §2, §3

mMLKL2 = target: T2, mMLKL2 (Mus musculus, UniProt Q9D2Y4); assay: Necroptosis inhibition in NIH MLKL ko cells containing mMLKL2; type: cell-based
T2 construct: GFP; expressed in transfected cells; host or cells: NIH-3T3 MLKL ko cells
T2 sequence (Q9D2Y4 1-464 isoform Q9D2Y4-2): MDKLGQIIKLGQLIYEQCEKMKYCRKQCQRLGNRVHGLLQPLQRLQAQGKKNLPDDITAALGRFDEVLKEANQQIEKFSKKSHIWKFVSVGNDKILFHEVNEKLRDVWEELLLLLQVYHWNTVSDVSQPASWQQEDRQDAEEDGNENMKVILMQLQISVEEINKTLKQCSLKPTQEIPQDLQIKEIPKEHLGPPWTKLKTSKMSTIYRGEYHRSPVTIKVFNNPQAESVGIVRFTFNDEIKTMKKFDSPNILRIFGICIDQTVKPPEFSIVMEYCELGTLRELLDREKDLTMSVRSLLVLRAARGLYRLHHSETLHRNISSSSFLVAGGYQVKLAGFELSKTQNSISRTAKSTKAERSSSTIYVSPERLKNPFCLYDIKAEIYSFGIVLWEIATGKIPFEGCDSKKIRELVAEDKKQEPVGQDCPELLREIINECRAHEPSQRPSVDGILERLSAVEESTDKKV
Excerpt: as §1

mMLKL2_I84A_F87A = target: T3, mMLKL2_I84A_F87A (Mus musculus, UniProt Q9D2Y4, F87A/I84A); assay: Cell death assay in MLKL ko cells transfected with mutant mMLKL2_I84A_F87A; type: cell-based; settings: FIG. 6G
T3 construct: GFP; expressed in transfected cells
T3 sequence (Q9D2Y4 1-464 isoform Q9D2Y4-2 I84A/F87A): T2 sequence (Q9D2Y4 1-464 isoform Q9D2Y4-2) with I84A, F87A
Excerpt: as §1

SMILES	effect on MLKL phosphorylation (phosphorylated MLKL [1])	effect on MLKL translocation to the plasma membrane (MLKL [2])	concentrations at which inhibitory activity was observed (HT-29; HT-29 cells, FIG. 6A)	toxicity (HT-29; at inhibitory concentrations, FIG. 6A)	inhibition of necroptosis (HT-29; human HT-29 cells, dose-dependent (FIG. 6A))	inhibition of necroptosis (hMLKL1)	effect on MLKL phosphorylation (phosphorylated MLKL [3])	dermatitis, severity score of skin lesions (Tnfr1KO;HoipEKO mice)	effect on MLKL translocation to the plasma membrane (MLKL [4])	concentrations at which necroptosis is inhibited (NIH-3T3 WT cells; NIH-3T3 cells, FIG. 6B, compared with MBA-h1 (lower than 10 μM))	concentrations at which toxicity was presented (NIH-3T3 WT cells; higher concentrations, FIG. 6B) [µM]	inhibition of necroptosis (NIH-3T3 WT cells; mouse NIH-3T3 WT cells, dose-dependent (FIG. 6B))	inhibition of necroptosis (mMLKL2)	inhibition of cell death mediated by mutant mMLKL2_I84A_F87A (mMLKL2_I84A_F87A)
CN1CCN(c2ccc(-c3cccc(NC(=O)c4ccc5ccccc5c4)c3)nn2)CC1 [MBA-h1, N-[3-[6-(4-methylpiperazin-1-yl)pyridazin-3-yl]phenyl]naphthalene-2-carboxamide]	none of the compounds blocked the phosphorylation of MLKL	potently interfered with MLKL translocation to the plasma membrane	lower than 10 μM	without evidence of toxicity	specifically inhibited necroptosis	inhibited necroptosis								
COc1ccc2nc(C)cc(Nc3ccc(Oc4ccc5ccccc5c4)c(Cl)c3)c2c1 [MBA-m1, N-(3-chloro-4-naphthalen-2-yloxyphenyl)-6-methoxy-2-methylquinolin-4-amine]							none of the compounds blocked the phosphorylation of MLKL	significantly ameliorated dermatitis	potently interfered with MLKL translocation to the plasma membrane	able to inhibit necroptosis at similar concentrations	12.5 to 50	specifically inhibited necroptosis	had the same effect	inert to inhibition
COc1nccnc1NS(=O)(=O)c1ccc(NC(=O)/C=C/c2ccc([N+](=O)[O-])s2)cc1 [NSA, reference compound]		interfered with MLKL translocation to the plasma membrane												
